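Cells were grown in 96-well plates and exposed to each compound for 48 hours at five concentrations; endpoints were interpolated linearly between bracketing concentrations, or set to the highest concentration if not reached. The concentration for 50% growth inhibition is given as GI50.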 Activity calls are given as the source filed them. Rule as the data show it: active = GI50 up to about 1.1 µM and inactive = higher.
Columns and labels:
Test in all cases: growth of human tumour cells (NCI), 48 h
DMS-114 = system: DMS-114
DMS-273 = system: DMS-273
KM-20L2 = system: KM-20L2
DLD-1 = system: DLD-1
M19-MEL = system: M19-MEL
XF498 = system: XF498
HOP-18 = system: HOP-18
SNB-78 = system: SNB-78

Measured: GI50

O=[N+]([O-])/C=C/c1ccc(Cl)cc1Cl
inactive: DMS-114 17.8 µM | DMS-273 11 µM | KM-20L2 18.7 µM | DLD-1 24.7 µM | M19-MEL 5.77 µM

CN1C(=O)C(Cl)(C(Cl)(Cl)S(=O)(=O)O)C(=O)c2ccccc21.c1ccncc1 (centres undefined)
inactive: KM-20L2 19.5 µM | DLD-1 > 100 µM | M19-MEL > 100 µM

COc1ccc(-c2cc(=O)c3c(O)cc(O)cc3o2)c(OC)c1OC
inactive: DMS-114 50.1 µM | KM-20L2 30.1 µM | DLD-1 81.3 µM | M19-MEL 63 µM | XF498 63 µM

Cc1cc(O)nc(NNC(C#N)c2ccccc2O)n1 (centres undefined)
inactive: DMS-114 19.8 µM | HOP-18 23.3 µM | DMS-273 5.27 µM | KM-20L2 13.1 µM | DLD-1 18.4 µM | M19-MEL 17.8 µM

CC[C@H](C)C(=O)O[C@H]1C[C@@H](C)C=C2C=C[C@H](C)[C@H](CC[C@@H]3C[C@@H](O)CC(=O)O3)[C@H]21 [LOVASTATIN]
inactive: DMS-114 > 30 µM | HOP-18 > 30 µM | DMS-273 8.69 µM | KM-20L2 > 30 µM | DLD-1 > 30 µM | M19-MEL 2.42 µM

CCCc1nn(C)c(CCC(=O)N(Cc2ccccc2)Cc2ccccc2)c1CC
inactive: DMS-114 > 100 µM | HOP-18 > 100 µM | SNB-78 > 100 µM | KM-20L2 > 100 µM | DLD-1 > 100 µM | M19-MEL > 100 µM | XF498 > 100 µM

COc1ccc(/C=N/N=C(\N)NO)cc1OC
inactive: DMS-114 28.7 µM | SNB-78 > 100 µM | DMS-273 48.9 µM | KM-20L2 37.8 µM | DLD-1 60.1 µM | M19-MEL 44.8 µM | XF498 35.1 µM

O=c1cc(-c2ccccc2)oc2cc(O)cc(O)c12 [CHRYSIN]
inactive: DMS-114 22.4 µM | SNB-78 28.8 µM | DMS-273 16.2 µM | KM-20L2 23.9 µM | M19-MEL 25.5 µM | XF498 20 µM

CC(C)C(Nc1c2ccccc2nc2ccccc12)C(=O)O (centres undefined)
inactive: DMS-273 68.4 µM | KM-20L2 > 100 µM | DLD-1 > 100 µM | M19-MEL > 100 µM | XF498 3.08 µM

CCN1CCC(O)(c2ccc(Cl)cc2)C(C(=O)c2ccc(Cl)cc2)C1 (centres undefined)
inactive: HOP-18 22.6 µM | SNB-78 > 100 µM | DMS-273 > 100 µM | KM-20L2 > 100 µM | DLD-1 > 100 µM | M19-MEL > 100 µM | XF498 > 100 µM

CNS(=O)(=O)NNS(=O)(=O)c1ccc2ccccc2c1
inactive: DMS-114 > 100 µM | HOP-18 > 100 µM | SNB-78 > 100 µM | DMS-273 > 100 µM | KM-20L2 > 100 µM | DLD-1 > 100 µM | M19-MEL > 100 µM

Reference: ChEMBL document CHEMBL1201862, “PubChem BioAssay data set” (2004)
